Data set [1] in a line: Diarrhoea score of weaned piglets fed supplemented feed. The conditions noted are these: 1000 ppm in feed; for Diarrhoea score: average over the total period.
Data set [2] can be described thus: Recovery in duodenum, jejunum and ileum of broilers fed supplemented feed. The class given is in vivo. The conditions noted are these: 1000 ppm in feed, day 43 of age, FIG. 3. The source says:
Broilers were offered feed supplemented with 1000 ppm of either dodecanoic acid or ethyl dodecanoate throughout the trial. At day 43 of age, 12 birds per treatment were sacrificed and the content of the duodenum, jejunum and ileum was harvested and analysed for levels of ethyl dodecanoate and dodecanoic acid. In FIG. 3 the mean levels are depicted.

In data set [3] the test system is Clostridium perfringens. Type of data set: cell-based.
Data set [4] deals with Clostridium perfringens. The class given is in vivo. To be noted: 0-42 day, infected broilers, 1000 ppm in feed.
The subject of data set [5] is Clostridium perfringens. The class given is in vivo, broilers. Also noted: Clostridium perfringens counts in jejunum: unit not given here. The conditions noted are these: 1000 ppm in feed; for Clostridium perfringens counts in jejunum: day 13 of age.
Setting [6] is: Example 1, FIG. 1, all tested levels, broth, 8 hours.
[7] abbreviates: Challenged broilers (10^8 CFU C. perfringens day 9-11).
The mark [8] stands for this setting: Overall (challenged and non-challenged).

Read-outs that look alike come from different tables or passages of the source.

On to `CCCCCCCCCCCC(=O)OCC` [ethyl dodecanoate], for which the Diarrhoea score in data set [1] turned out to be 42.41 b. Besides, the “Effect on diarrhoea (in words)” value in data set [1] (versus control) was “significantly reduce diarrhoea”. In addition, in data set [2], the “Level recovered in the jejunum” value is given as “higher than the free fatty acid”. The “Inhibition of growth of Clostridium perfringens (OD)” value (“Inhibition” for short) in data set [3] (setting [6]) is “complete inhibition”; in data set [3] (Example 2, FIG. 2, lowest inclusion level of treatment), “complete inhibition”. In addition, the Feed conversion ratio in data set [4] worked out at 1.626. In data set [4], the Feed intake amounted to 106.5 g/day. The molecule further came in with a Mortality in data set [4] of 4.621%. Further, the Weight gain in data set [4] was found to be 65.5 g/day. Further, the entries for the “Clostridium perfringens counts in jejunum” value in data set [5] (setting [7]), in data set [5] (Non-challenged broilers) and in data set [5] (setting [8]) were 0.977, 1.048 and 1.013, respectively. In addition, the “Effect on Clostridium counts in jejunum (in words)” value in data set [5] (broilers, versus dodecanoic acid) is “overall significant reduction”.
Consider `CCCCCCCC(=O)OC` [methyl octanoate], for which the “Inhibition” value in data set [3] (setting [6]) was “nearly the same results”.
In data set [1], `CCCCCCCCCCCC(=O)O` [dodecanoic acid, reference compound] had a Diarrhoea score of 46.64 ab. Also, the “Inhibition” value in data set [3] (Example 2, FIG. 2, at 67 ppm) is given as “not as effective”. For the same molecule, in data set [4], the Feed conversion ratio is listed as 1.636, the Feed intake is recorded as 104.3 g/day, the Mortality came out at 8.333% and the Weight gain was 63.78 g/day. Also, in data set [5] (setting [7]), the “Clostridium perfringens counts in jejunum” value is reported as 2.122. Moreover, the “Clostridium perfringens counts in jejunum” value in data set [5] (Non-challenged broilers) amounted to 1.418. Further, the “Clostridium perfringens counts in jejunum” value in data set [5] (setting [8]) is reported as 1.770.

The values are drawn from US9861117B2 (priority 2009, dated 2018).
